# Data published in US20180072997A1, “INHIBITORS OF HUMAN IMMUNODEFICIENCY VIRUS REPLICATION” (ViiV HEATHCARE UK (NO.5) LIMITED, priority 2015, published 2018).
# Tests used:
# [1] = test system: recombinant NL4-3 virus (Renilla luciferase in nef) in MT-2 cells; test: whole plant or invertebrate; type: cell-based, HIV; conditions: luciferase activity
# How it was run: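 MT-2 cells infected for 4-5 days with NL4-3 reporter virus (Renilla luciferase replacing part of nef, produced by transfection of 293T cells) in the presence of serial compound dilutions. Antiviral activity quantified by luciferase activity read with a live-cell substrate.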
# [2] = Compound cytotoxicity, XTT-based colorimetric assay; type: cell-based; conditions: human, uninfected MT2 cells, day 4, XTT
# How it was run: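 Run under the antiviral-assay protocol but without virus. Viability was read on day 4 and CC50 values were derived from the readout.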
# [3] = Renilla, NL43, MT-2 cells infected for 4-5 days with recombinant NL4-3 Renilla luciferase virus
Compound,"EC50 [1, 3]",CC50 at 4 days [2],EC50 ([1]; MT-2 cells infected for 4-5 days with recombinant NL4-3 Renilla luciferase virus)
COc1ccc(N(C)C(=O)[C@H](Cc2ccccc2)NC(=O)CC(C)(C)C(=O)N[C@@H](Cc2ccccc2)C(=O)N(C)c2ccc(OC)cc2)cc1 [Example 30],4.96 µM,31.2 µM,–
CN(C(=O)[C@H](Cc1ccccc1)NC(=O)c1ccc(F)c(C(=O)N[C@@H](Cc2ccccc2)C(=O)N(C)c2ccc3scnc3c2)c1)c1ccc2scnc2c1 [Example 169],0.06 µM,4.5 µM,–
COc1ccc(N(C)C(=O)[C@H](Cc2ccccc2)NC(=O)Cn2c(=O)n(CC(=O)N[C@@H](Cc3ccccc3)C(=O)N(C)c3ccc(OC)cc3)c3cc(NC(C)=O)ccc32)cc1 [Example 97],2.6 µM,≥ 100 µM,–
C=CCN(C(=O)[C@H](Cc1cc(F)cc(F)c1)NC(=O)c1ccncc1C(=O)N[C@@H](Cc1cc(F)cc(F)c1)C(=O)N(CC=C)c1ccc(OC)cc1)c1ccc(OC)cc1 [Example 211],3.92 µM,14 µM,–
COc1ccc(N(C)C(=O)[C@H](Cc2ccccc2)NC(=O)c2cc(C(=O)N[C@@H](Cc3ccccc3)C(=O)N(C)c3ccc(OC)cc3)[nH]n2)cc1 [Example 57],1.58 µM,3.5 µM,–
COc1ccc(N(C)C(=O)[C@H](Cc2ccccc2)NC(=O)Cc2ccccc2CC(=O)N[C@@H](Cc2ccccc2)C(=O)N(C)c2ccc(OC)cc2)cc1 [Example 38],0.55 µM,45 µM,–
C=CCN(C(=O)[C@H](Cc1cc(F)cc(F)c1)NS(=O)(=O)c1cccc(S(=O)(=O)N[C@@H](Cc2cc(F)cc(F)c2)C(=O)N(CC=C)c2ccc(OC)cc2)c1)c1ccc(OC)cc1 [Example 187],3.78 µM,≥ 100 µM,–
"C=CCCN(C(=O)[C@H](Cc1cc(F)cc(F)c1)NC(=O)NS(=O)(=O)N[C@@H](Cc1cc(F)cc(F)c1)C(=O)N(CCC=C)c1ccc2scnc2c1)c1ccc2scnc2c1 (single isomer, unassigned) [Example 141]",–,16.2 µM,0.09 µM
COc1ccc(-n2ccnc2C(Cc2ccccc2)NC(=O)CN2c3ccccc3N(CC(=O)N[C@@H](Cc3ccccc3)c3nccn3-c3ccc(OC)cc3)S2(=O)=O)cc1 (some centres unmarked) [Example 166],6.7 µM,≥ 100 µM,–
COc1ccc(N(C)C(=O)[C@H](Cc2ccccc2)NC(=O)Cn2c(=O)c3ccccc3n(CC(=O)N[C@@H](Cc3ccccc3)C(=O)N(C)c3ccc(OC)cc3)c2=O)cc1 [Example 100],0.07 µM,≥ 100 µM,–
C=CCN(C(=O)[C@H](Cc1cc(F)cc(F)c1)NC(=O)NS(=O)(=O)N[C@@H](Cc1cc(F)cc(F)c1)C(=O)N(CC=C)c1ccc2scnc2c1)c1ccc2scnc2c1 [Example 140],0.1 µM,32.7 µM,–
COc1ccc(N(C)C(=O)[C@H](Cc2ccccc2)NC(=O)Cc2cn(CC(=O)N[C@@H](Cc3ccccc3)C(=O)N(C)c3ccc(OC)cc3)c3ccccc23)cc1 [Example 61],0.61 µM,32.6 µM,–
COc1ccc(N(C)C(=O)[C@H](Cc2ccccc2)NC(=O)CCC(=O)N[C@@H](Cc2ccccc2)C(=O)N(C)c2ccc(OC)cc2)cc1 [Example 21],3.25 µM,27 µM,–
CN(C(=O)[C@H](Cc1cc(F)cc(F)c1)NC(=O)NS(=O)(=O)N[C@@H](Cc1cc(F)cc(F)c1)C(=O)N(C)c1ccc2nccnc2c1)c1ccc2nccnc2c1 [Example 203],30.4 µM,≥ 100 µM,–
Cc1cc(F)cc(N(C)C(=O)[C@H](Cc2ccccc2)NC(=O)NS(=O)(=O)N[C@@H](Cc2ccccc2)C(=O)N(C)c2cc(C)cc(F)c2)c1 [Example 224],3.91 µM,46 µM,–
COc1ccc(N(C)C(=O)[C@H](Cc2cc(F)cc(F)c2)Nc2ccnc(N[C@@H](Cc3cc(F)cc(F)c3)C(=O)N(C)c3ccc(OC)cc3)n2)cc1 [Example 158],9.53 µM,12.4 µM,–
CCOc1ccc(N(CC)C(=O)[C@H](Cc2ccccc2)NC(=O)NS(=O)(=O)N[C@@H](Cc2ccccc2)C(=O)N(CC)c2ccc(OCC)cc2)cc1 [Example 5],0.15 µM,≥ 33.3 µM,–
Cc1ccc(N(C)C(=O)[C@H](Cc2cc(F)cc(F)c2)NC(=O)c2ccc(F)c(C(=O)N[C@@H](Cc3cc(F)cc(F)c3)C(=O)N(C)c3ccc(C)nc3)c2)cn1 [Example 184],0.19 µM,11.1 µM,–
COc1ccc(N(C)C(=O)[C@H](Cc2cc(F)cc(F)c2)NC(=O)Cn2c(=O)n(CC(=O)N[C@@H](Cc3cc(F)cc(F)c3)C(=O)N(C)c3ccc(OC)cc3)c3cc(F)ccc32)cc1 [Example 76],0.03 µM,11.4 µM,–

Compound,"EC50 [1, 3]",CC50 at 4 days [2],EC50 ([1]; MT-2 cells infected for 4-5 days with recombinant NL4-3 Renilla luciferase virus)
COc1ccc(N(C)C(=O)[C@H](Cc2cc(F)cc(F)c2)NC(=O)CS(=O)(=O)N[C@@H](Cc2cc(F)cc(F)c2)C(=O)N(C)c2ccc(OC)cc2)cc1 [Example 64],0.38 µM,11.3 µM,–
COc1ccc(N(C)C(=O)[C@H](Cc2ccccc2)NC(=O)c2ccnc(C(=O)N[C@@H](Cc3ccccc3)C(=O)N(C)c3ccc(OC)cc3)c2)cc1 [Example 105],0.68 µM,3.1 µM,–
COc1ccc(N(C)C(=O)[C@H](Cc2ccccc2)NC(=O)Cc2cccc(CC(=O)N[C@@H](Cc3ccccc3)C(=O)N(C)c3ccc(OC)cc3)c2)cc1 [Example 42],0.85 µM,40.7 µM,–
Cc1cc(N(C)C(=O)[C@H](Cc2ccccc2)NC(=O)NS(=O)(=O)N[C@@H](Cc2ccccc2)C(=O)N(C)c2ccc(C#N)c(C)c2)ccc1C#N [Example 228],2.74 µM,93.5 µM,–
CN(C(=O)[C@H](Cc1cc(F)cc(F)c1)NC(=O)NS(=O)(=O)N[C@@H](Cc1cc(F)cc(F)c1)C(=O)N(C)c1ccccc1)c1ccccc1 [Example 86],0.09 µM,24.5 µM,–
Cc1ccc(N(C)C(=O)[C@H](Cc2cc(F)cc(F)c2)NC(=O)NS(=O)(=O)N[C@@H](Cc2cc(F)cc(F)c2)C(=O)N(C)c2ccc(C)nc2)cn1 [Example 172],0.58 µM,≥ 100 µM,–
CN(C(=O)[C@H](Cc1cc(F)cc(F)c1)NC(=O)Cn1c(=O)n(CC(=O)N[C@@H](Cc2cc(F)cc(F)c2)C(=O)N(C)c2ccc3scnc3c2)c2ccccc21)c1ccc2scnc2c1 [Example 119],0.01 µM,≥ 100 µM,–
CN(C(=O)[C@H](Cc1cc(F)cc(F)c1)NC(=O)NS(=O)(=O)N[C@@H](Cc1cc(F)cc(F)c1)C(=O)N(C)c1ccc2scnc2c1)c1ccc2scnc2c1 [Example 18],0.03 µM,85.3 µM,–
CN(C(=O)[C@H](Cc1ccccc1)NC(=O)NS(=O)(=O)N[C@@H](Cc1ccccc1)C(=O)N(C)c1ccc2scnc2c1)c1ccc2scnc2c1 [Example 13],0.08 µM,≥ 100 µM,–
COc1ccc(N(C)C(=O)[C@H](Cc2ccccc2)NC(=O)Cn2c(=O)c3ccccc3c(=O)n2CC(=O)N[C@@H](Cc2ccccc2)C(=O)N(C)c2ccc(OC)cc2)cc1 [Example 92],0.29 µM,10.1 µM,–
COc1ccc(N(C)C(=O)[C@H](Cc2ccccc2)NC(=O)[C@H](C)NC(=O)N[C@@H](C)C(=O)N[C@@H](Cc2ccccc2)C(=O)N(C)c2ccc(OC)cc2)cc1 [Example 104],0.13 µM,31 µM,–
COc1ccc(N(C)C(=O)[C@H](Cc2ccccc2)NC(=O)CCCC(=O)N[C@@H](Cc2ccccc2)C(=O)N(C)c2ccc(OC)cc2)cc1 [Example 22],1.31 µM,21.1 µM,–
CN(C(=O)[C@H](Cc1cc(F)cc(F)c1)NC(=O)N[C@@H](Cc1cc(F)cc(F)c1)C(=O)N(C)c1ccc2scnc2c1)c1ccc2scnc2c1 [Example 221],0.52 µM,≥ 100 µM,–
CN(C(=O)[C@H](Cc1cc(F)cc(F)c1)NC(=O)NS(=O)(=O)N[C@@H](Cc1cc(F)cc(F)c1)C(=O)N(C)c1cnc2scnc2c1)c1cnc2scnc2c1 [Example 226],8.92 µM,≥ 100 µM,–
CCN(C(=O)[C@H](Cc1cc(F)cc(F)c1)NC(=O)CN1c2ccccc2N(CC(=O)N[C@@H](Cc2cc(F)cc(F)c2)C(=O)N(CC)c2ccc(OC(F)F)cc2)S1(=O)=O)c1ccc(OC(F)F)cc1 [Example 147],0.09 µM,≥ 100 µM,–
CN(C(=O)[C@H](Cc1cc(F)cc(F)c1)NC(=O)c1ccc(F)c(C(=O)N[C@@H](Cc2cc(F)cc(F)c2)C(=O)N(C)c2ccc3snnc3c2)c1)c1ccc2snnc2c1 [Example 179],0.34 µM,≥ 100 µM,–
Cc1ccc(N(C)C(=O)[C@H](Cc2cc(F)cc(F)c2)NC(=O)CN2c3ccccc3N(CC(=O)N[C@@H](Cc3cc(F)cc(F)c3)C(=O)N(C)c3ccc(C)nc3)S2(=O)=O)cn1 [Example 195],0.02 µM,54 µM,–
COc1ccc(N(C)C(=O)[C@H](Cc2cc(F)cc(F)c2)NC(=O)Cn2c(=O)c3ccccc3c(=O)n2CC(=O)N[C@@H](Cc2cc(F)cc(F)c2)C(=O)N(C)c2ccc(OC)cc2)cc1 [Example 93],0.09 µM,5.7 µM,–
